Source: patent publication US20240238211A1, “ISOQUINOLINE-STABILIZED LIPID NANOPARTICLE FORMULATIONS” (ModernaTX, Inc., priority 2021, published 2024)

Legend:
mRNA [1] = assay: mRNA stabilization: main peak purity by RP-HPLC (Example 1); format: physicochemical; conditions: LNP mRNA 0.2 mg/mL in buffer, T0, 3-day, 7-day (berberine, palmatine); buffered mRNA, 5 days at 50° C. (coralyne, palmatine)
Text: mRNA purity can be determined by reverse phase high-performance liquid chromatography (RP-HPLC) size based separation. This method can be used to assess mRNA integrity by a length-based gradient RP separation and UV detection of RNA at 260 nm. As used herein “main peak” or “main peak purity” refers to the RP-HPLC signal detected from mRNA that corresponds to the full size mRNA molecule loaded within a given LNP formulation. mRNA purity can also be assessed by fragmentation analysis. Fragmentation analysis (FA) is a method by which nucleic acid (e.g., mRNA) fragments can be analyzed by capillary electrophoresis. Fragmentation analysis involves sizing and quantifying nucleic acids (e.g., mRNA), for example by using an intercalating dye coupled with an LED light source. Such analysis may be completed, for example, with a Fragment Analyzer from Advanced Analytical Technologies, Inc. Berberine USP was combined with an LNP containing mRNA (0.2 mg/ml in buffer) in amounts corresponding to the concentrations reported in FIG. 2. Main peak purity was measured by RP-HPLC at T0, 3-day, and 7-day. See, FIG. 2. Palmatine USP was combined with an LNP containing mRNA (0.2 mg/mL in buffer) in amounts corresponding to the concentrations reported in FIG. 3. Main peak purity was measured by RP-HPLC at T0, 3-day, and 7-day. […] After storage for 5 days at 50° C., main peak purity was measured by RP-HPLC. […]

mRNA [2] = assay: HPLC purity of mRNA stressed at 40° C. for 3 weeks; format: physicochemical; conditions: ~1 mM berberine
Protocol: HPLC analyses were performed to evaluate the purity of mRNA stressed at elevated temperature (40° C.) for 3 weeks. In the absence of stabilizer, less than 5% of the mRNA (main peak 5.857 min) remained intact. By contrast, in the presence of ˜1 mM berberine, over 22% of the mRNA (main peak 5.857 min) remained intact. […] See, FIG. 5.

mRNA LNPs = assay: Dynamic light scattering of mRNA LNPs after 40° C. stress; format: physicochemical; conditions: 1 mM berberine, 40° C. stress for 1 week
Text: Particle size (e.g., particle diameter) can be determined by Dynamic Light Scattering (DLS). DLS measures a hydrodynamic diameter. Smaller particles diffuse more quickly, leading to faster fluctuations in the scattering intensity and shorter decay times for the autocorrelation function. Larger particles diffuse more slowly, leading to slower fluctuations in the scattering intensity and longer decay times in the autocorrelation function. Dynamic light scattering is sensitive to perturbation to the physical integrity of mRNA LNPs. mRNA LNPs were formulated with 1 mM berberine or without berberine and then exposed to 40° C. temperature stress for 1 week. As a control, mRNA LNPs were formulated without berberine. The size distribution of the mRNA LNPs was then analyzed by dynamic light scattering. […] See, FIG. 6.

mRNA [3] = assay: mRNA LNP stability as a function of pH and temperature (main peak purity); format: physicochemical; conditions: 1 mM excipient, pH 5.5 to 7.4, 0.8 mg/mL, 1 week at 40° C. or 2 weeks at 25° C.
Protocol: The stability of mRNA LNP formulations was evaluated as a function of pH and temperature in the presence and absence of berberine and palmatine. 1 mM excipients were added in pH conditions 5.5 to 7.4 to evaluate pH impact on mRNA stabilization in mRNA LNPs. For pH between 5.5-6.5, 7 mM citrate and 8% sucrose buffer was used. For pH of 7.4, tris/sucrose buffer was used. The LNP formulations were incubated at 0.8 mg/mL for 1 week at 40° C. or 2 weeks at 25° C., and then main peak purity was measured. Incubation for 1 week at 40° C. or 2 weeks at 25° C. show similar trends. […] See, FIG. 7.

mRNA [4] = assay: mRNA LNP stability at pH 7.4 as a function of berberine concentration (main peak purity); format: physicochemical; conditions: 0-1.5 mM berberine, pH 7.4 tris/sucrose, ~0.2 mg/mL, 1 week at 40° C. or 2 weeks at 25° C.
Protocol: The stability of mRNA LNP formulations at pH of 7.4 was then further evaluated as a function of berberine concentration. A series of mRNA LNPs were formulated with various levels of berberine (0, 0.2, 0.4, 0.6, 0.8, 1.0, 1.25, 1.5 mM) and stressed in 7.4 pH tris/sucrose buffer at ˜0.2 mg/mL for either 1 week at 40° C. or 2 weeks at 25° C., and then main peak purity was measured. […] In this study, maximal effect occurs in the 1-1.25 mM berberine range. See, FIG. 8.

mRNA [5] = assay: mRNA purity of three month, 25° C. stability samples of mRNA LNPs; format: physicochemical; conditions: mRNA LNPs containing palmatine at varying concentrations, 3 months at 25° C.
[6] = Immunogenicity of mRNA LNP stability samples in vivo (serum antibody titers); parameters: species or system BALB/c mice; conditions: three month, 25° C. stability samples of mRNA LNPs containing palmatine, mice
Protocol: Experiments were performed to (i) evaluate immunogenicity of mRNA LNPs containing palmatine or berberine at varying concentrations as compared to non-stabilized control mRNA LNPs. BALB/c mice (N=210) are injected with a mRNA LNP stabilized with varying concentrations of palmatine or berberine (e.g., 0, 0.5 mM, 0.75 mM, 1 mM, 2 mM, 5 mM, or 10 mM). Various dose levels (e.g., 2.5 ug/mg; 1.25 ug/mg; or 0.63 ug/mg) are injected into mice intramuscularly on day 1. On day 21, immunogenicity is assessed via serum antibody titers against protein encoded by the mRNA. The mice are given a booster injection on day 22, and then immunogenicity is again assessed on day 36. Three month, 25° C. stability samples from mRNA LNPs containing palmatine at varying concentrations, and non-stabilized mRNA LNPs (no palmatine) were tested in vivo as continued immunogenicity monitoring on stability. […] The drop in antibody titers is correlated to a significant drop in mRNA purity.

mRNA [7] = assay: Differential scanning microcalorimetry of mRNA with palmatine chloride; format: physicochemical; conditions: increasing palmatine chloride up to 500 μM, 20 mM Tris, 8% sucrose
Protocol: With reference to FIG. 9, differential scanning microcalorimetry thermograms were obtained of lipid nanoparticles encapsulating mRNA and containing increasing concentrations of palmatine chloride (left-most trace—free mRNA, right-most trace—500 μM palmatine). The experiments were performed in 20 mM Tris, 8% sucrose buffer.

mRNA [8] = assay: Long-term stability of mRNA with 2 mM palmatine chloride (intact mRNA by chromatography); format: physicochemical; conditions: for degradation rate (% per month) / greater purity than unstabilized composition: 0.20 mg/ml mRNA + 2 mM palmatine chloride
Protocol: The degradation rate (% per month) of the stabilized composition was 1.8% as compared to […] for the unstabilized composition. […] The degradation rate (% per month) of the stabilized composition was 8.6% as compared to 38% for the unstabilized composition. […] With reference to FIGS. 10A and 10B, studies were performed to determine the long-term effect of palmatine chloride on thermal stability of mRNA. Aliquots of mRNA solution were mixed with 2 mM palmatine chloride and were incubated for the indicated periods of time at 5° C. (FIG. 10A) and 25° C. (FIG. 10B). The percentage of remaining intact mRNA was quantified using chromatography. The dashed line traces represent mRNA-only samples. The solid line traces represent mRNA samples containing palmatine chloride.

[9] = test system: lipid nanoparticles encapsulating mRNA; assay: Permeation of palmatine chloride into lipid nanoparticles encapsulating mRNA; format: physicochemical; conditions: 2 mM palmatine, 1 to 14 days, 5, 15, 25 or 40° C., 20 mM Tris, 8% sucrose
Protocol: Formulations contain 0.20 mg/ml mRNA DP with 2 mM palmatine chloride. With reference to FIG. 11, studies were performed to determine the effect of time and temperature on diffusion (permeation) of palmatine chloride into lipid nanoparticles encapsulating mRNA. The samples were prepared in 20 mM Tris, 8% sucrose. The lipid nanoparticles encapsulating mRNA were incubated in 2 mM palmatine for 1 to 14 days. Free palmatine was separated from the lipid nanoparticles by gel filtration on 40 kD Zeba cartridges, whereas the concentration of lipid nanoparticle-permeated palmatine was determined by reverse phase chromatography using a Luna C18 column.

mRNA [10] = assay: Stability of mRNA LNPs with DTPA and palmatine chloride (main peak purity); format: physicochemical; conditions: 0.20 mg/ml mRNA LNP, 1 mM DTPA, palmatine chloride 0.5, 1 or 2 mM, up to 5 months
Protocol: With reference to FIG. 12, studies were performed to determine the stability of lipid nanoparticles encapsulating mRNA containing the chelator DTPA and varying concentrations of palmatine chloride. 0.20 mg/ml samples of lipid nanoparticles encapsulating mRNA and 1 mM DTPA were incubated with palmatine chloride (0 mM, 0.5 mM, 1 mM, or 2 mM). Measurements of main peak (mRNA) purity were taken at time points up to 5 months.

effect on mRNA (main peak purity by RP-HPLC) (mRNA [1])	mRNA remaining intact (main peak) (mRNA [2])	stabilizing effect across pH range (main peak purity) (mRNA [3])	dependence of stabilizing effect on concentration (mRNA [4])	effect of binding on thermal stability of mRNA (DSC thermograms) (mRNA [7])	degradation rate (% per month) (mRNA [8]; 5° C. over twelve months)	greater purity than unstabilized composition (mRNA [8]; 5° C., after ten months)	degradation rate (% per month) (mRNA [8]; 25° C. over six months)	greater purity than unstabilized composition (mRNA [8]; 25° C., after six months)	mRNA thermal stability in the presence of the compound (mRNA [8]; 2 mM palmatine chloride, 5° C. and 25° C.)	rate of permeation into lipid nanoparticles as a function of temperature [9]	mRNA stability (main peak purity) (mRNA [10])	Structure (SMILES)	effect on hydrodynamic characteristics of the lipid nanoparticle (size distribution) (mRNA LNPs)	mRNA purity versus non-stabilized samples (mRNA [5])	antibody titers versus −70° C. non-stabilized control [6]	permeated concentration in lipid nanoparticles as a function of temperature [9]
stabilizing effect	over 22%	strong stabilizing effects	concentration-dependent manner	–	–	–	–	–	–	–	–	COc1ccc2cc3[n+](cc2c1OC)CCc1cc2c(cc1-3)OCO2 [berberine]	no effect on the hydrodynamic characteristics of the lipid nanoparticle	–	–	–
stabilizing effect	–	strong stabilizing effects	–	increased thermal stability of mRNA	1.8 % per month	20%	8.6 % per month	35%	significantly improved	increased rate of permeation	significantly improved	COc1cc2c(cc1OC)-c1cc3ccc(OC)c(OC)c3c[n+]1CC2 [palmatine]	–	higher mRNA purity than the non-stabilized	more similar antibody titers to the −70 °C control arm	increased permeated palmatine concentration
